Laboratory results from US5658897A, “Cyclopentane(ene) heptanoic or cyclopentane(ene) heptenoic acid, 2-hydrocarbyl phosphinyloxyalkyl or phosphonamidoalkyl as therapeutic agents” (Allergan, priority 1996, dated 1997).
“Also recorded” adds a separate entry of the source. Read-outs that look alike come from different tables or passages of the source.

How the values were obtained:
[1] = system: EP3; test: EP3 activity in isolated smooth muscle preparations; settings: read-out: EC50 (nM) EP3
Protocol: (§1) Activity at different prostanoid receptors was measured in vitro in isolated smooth muscle preparations. FP-activity was measured as contraction of the isolated feline iris sphincter. EP4 -activity was measured as relaxation of smooth muscle of isolated rabbit jugular vein. TP-vasoconstrictor activity was measured as contraction of rings of the isolated rat thoracic aorta.

[2] = system: DP/EP2; test: DP/EP2 activity in isolated smooth muscle preparations; settings: read-out: EC50 (nM) DP/EP2
Protocol: as §1

[3] = target: FP receptor (Felis catus, UniProt A0ABI7XJ69); test: FP activity, contraction of the isolated feline iris sphincter; settings: read-out: EC50 (nM) FP
Sequence of FP receptor (A0ABI7XJ69 1-366): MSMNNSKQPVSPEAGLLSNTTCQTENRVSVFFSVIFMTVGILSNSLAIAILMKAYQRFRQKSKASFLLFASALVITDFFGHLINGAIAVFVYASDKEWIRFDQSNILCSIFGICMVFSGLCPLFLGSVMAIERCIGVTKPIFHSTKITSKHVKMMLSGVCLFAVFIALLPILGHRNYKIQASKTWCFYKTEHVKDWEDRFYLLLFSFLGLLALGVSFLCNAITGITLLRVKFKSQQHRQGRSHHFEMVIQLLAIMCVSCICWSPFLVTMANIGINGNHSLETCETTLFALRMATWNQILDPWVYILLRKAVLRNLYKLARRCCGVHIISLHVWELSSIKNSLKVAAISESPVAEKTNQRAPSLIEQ
Protocol: as §1

[4] = target: EP4 (Oryctolagus cuniculus, UniProt Q28691); settings: for IC25: read-out: IC25 EP4
Sequence of EP4 (Q28691 whole entry): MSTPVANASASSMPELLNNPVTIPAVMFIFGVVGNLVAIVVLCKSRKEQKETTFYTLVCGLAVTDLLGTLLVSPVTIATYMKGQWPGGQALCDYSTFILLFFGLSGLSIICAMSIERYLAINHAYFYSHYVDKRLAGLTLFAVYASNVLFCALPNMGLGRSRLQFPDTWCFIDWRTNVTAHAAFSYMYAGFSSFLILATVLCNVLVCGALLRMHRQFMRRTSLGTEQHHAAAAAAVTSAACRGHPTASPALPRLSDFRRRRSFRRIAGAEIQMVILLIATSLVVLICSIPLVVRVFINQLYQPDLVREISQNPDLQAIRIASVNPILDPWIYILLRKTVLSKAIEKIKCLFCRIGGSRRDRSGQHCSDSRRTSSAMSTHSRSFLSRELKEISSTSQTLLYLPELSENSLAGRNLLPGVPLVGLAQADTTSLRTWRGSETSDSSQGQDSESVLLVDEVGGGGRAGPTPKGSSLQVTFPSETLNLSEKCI
Protocol: as §1

[5] = cited from earlier work; for ocular hypotensive activity: in vivo
[6] = system: intraocular pressure in the dog; test: Dog intraocular pressure by applanation pneumatonometry; format: in vivo; settings: 0.1%, 25 μl to ocular surface
Protocol: The effects of certain of the compounds of the working examples on intraocular pressure are also measured. The compounds of Examples 3 and 7 are prepared at 0.1% w/v concentration in a vehicle comprising 0.1% polysorbate 80 and 10 mM tris (hydroxy methyl) aminomethane hydrochloride (TRIS) base. Dogs are treated by administering 25 μl to the ocular surface, while the contralateral eye receives vehicle as a control. Intraocular pressure is measured by applanation pneumatonometry. Dog intraocular pressure is measured immediately before drug administration and at 2, 4, 6 and 24 hours thereafter. Each of the compounds tested lower intraocular pressure in the dog model.

[7] = system: ocular surface; settings: cited from earlier work
[8] = system: EP1; test: EP1 activity in isolated smooth muscle preparations; settings: read-out: EC50 (nM) EP1
Protocol: Activity at different prostanoid receptors was measured in vitro in isolated smooth muscle preparations.

[9] = target: T1, TP (Rattus norvegicus, UniProt P34978)
T1 sequence (P34978 1-341): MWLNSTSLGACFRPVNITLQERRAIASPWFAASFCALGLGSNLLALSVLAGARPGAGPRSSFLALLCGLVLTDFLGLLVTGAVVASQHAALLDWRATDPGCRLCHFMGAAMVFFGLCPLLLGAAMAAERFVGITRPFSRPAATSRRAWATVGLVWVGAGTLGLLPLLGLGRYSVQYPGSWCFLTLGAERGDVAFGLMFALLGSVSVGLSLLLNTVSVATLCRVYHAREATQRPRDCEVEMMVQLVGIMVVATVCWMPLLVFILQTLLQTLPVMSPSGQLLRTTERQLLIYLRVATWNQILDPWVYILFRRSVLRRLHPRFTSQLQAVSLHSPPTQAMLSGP
Protocol: as §1

`COC(=O)CCC/C=C\C[C@@H]1[C@@H](COP(=O)(O)CCc2ccccc2)[C@H](O)C[C@@H]1O` showed an EC50 [1] greater than 10000 nM, an EC50 [2] greater than 10000 nM and an EC50 [3] greater than 10000 nM. The “FP/EP4 Ratio” value [4] was greater than 27 and the IC25 [4] was 0.365 µM.

In the case of `O=C(O)CCC/C=C\C[C@@H]1[C@@H](COP(=O)(O)CCc2ccccc2)[C@H](O)C[C@@H]1O`, the EC50 [3] is reported as greater than 10000 nM.

In the case of `CCOP(=O)(CCc1ccccc1)OC[C@@H]1[C@@H](C/C=C\CCCC(=O)O)[C@@H](O)C[C@H]1O` (some centres unmarked), the EC50 [3] is reported as greater than 10000 nM, the “FP/EP4 Ratio” value [4] is reported as greater than 0.15 and the IC25 [4] is reported as 66.3 µM.

With `COP(=O)(CCc1ccccc1)NC[C@@H]1[C@@H](C/C=C\CCCC(=O)O)[C@@H](O)C[C@H]1O` (some centres unmarked) the EC50 [3] was 2140 nM, the “FP/EP4 Ratio” value [4] was 2.8 and the IC25 [4] was 0.767 µM.

For `CCCCC[C@@H](/C=C/[C@@H]1[C@@H](C/C=C\CCCC(=O)O)[C@@H](O)C[C@H]1OC(=O)C(C)(C)C)OC(=O)C(C)(C)C` [11,15-dipivaloyl PGF2α], the ocular hypotensive activity [5] is listed as “known to have ocular hypotensive activity”.

For `COP(=O)(CCc1ccccc1)OC[C@@H]1[C@@H](C/C=C\CCCC(=O)O)[C@@H](O)C[C@H]1O` (stereo partly drawn) [Example 3, 7-[3α,5α-Dihydroxy-2-β-[[methoxy(2-phenylethyl)phosphinyl]oxymethyl]cyclopentyl]-5Z-heptenoic acid], the “Decrease in IOP (mm Hg) at 2 HR” value [6] was -1.1 mm Hg, the “Decrease in IOP (mm Hg) at 4 HR” value [6] was -2.9 mm Hg and the “Decrease in IOP (mm Hg) at 6 HR” value [6] was -3.5 mm Hg. For the same molecule, the “Decrease in IOP (mm Hg) at 24 HR” value [6] was 0.4 mm Hg.

With `COC(=O)CCC/C=C\C[C@@H]1[C@@H](CNP(=O)(CCc2ccccc2)OC)[C@H](O)C[C@@H]1O` (some centres unmarked) [Example 7] the “Decrease in IOP (mm Hg) at 2 HR” value [6] was -3.3 mm Hg, the “Decrease in IOP (mm Hg) at 4 HR” value [6] was -4.1 mm Hg and the “Decrease in IOP (mm Hg) at 6 HR” value [6] was -5.1 mm Hg. For the same molecule, the “Decrease in IOP (mm Hg) at 24 HR” value [6] was -3.5 mm Hg.

In the case of `CCCCC[C@H](O)/C=C/[C@H]1[C@H](O)CC(=O)[C@@H]1C/C=C\CCCC(=O)O` [PGE2], the ocular hypotensive activity [5] is listed as “possess ocular hypotensive activity; also recorded: highly effective ocular hypotensive agents”.

For `CCCCC[C@H](O)/C=C/[C@@H]1[C@@H](CCCCCCC(=O)O)[C@@H](O)C[C@H]1O` [PGF1α], the ocular hypotensive activity [5] is listed as “highly effective ocular hypotensive agents”.

For `CCCCC[C@H](O)/C=C/[C@@H]1[C@@H](C/C=C\CCCC(=O)O)[C@@H](O)C[C@H]1O` [PGF2α], the “ocular surface side effects” value ([7]; in vivo) is listed as “ocular surface (conjunctival) hyperemia and foreign-body sensation”.

Molecule `COP(=O)(CCc1ccccc1)OC[C@@H]1[C@@H](C/C=C\CCCC(=O)O)[C@@H](O)C[C@H]1O` (some centres unmarked) [drawing 10] has an EC50 [8] of 10000 nM, an EC50 [1] of 575 nM and an EC50 [2] greater than 10000 nM. For the same molecule, the EC50 [3] was 195 nM and the EC50 [9] was greater than 10 µM.

`COC(=O)CCC/C=C\C[C@@H]1[C@@H](CNP(=O)(CCc2ccccc2)OC)[C@H](O)C[C@@H]1O` (some centres unmarked) [drawing 14] showed an EC50 [1] greater than 10000 nM, an EC50 [3] of 252 nM and an EC50 [9] greater than 10 µM.

For `CCCCC[C@H](O)/C=C/[C@@H]1[C@@H](C/C=C\CCCC(=O)OC(C)C)[C@@H](O)C[C@H]1O` [isopropyl ester of PGF2α], the “hypotensive potency versus the parent compound PGF2α” value ([5]; attributed to more effective penetration through the cornea) is given as “significantly greater hypotensive potency than the parent compound”, the ocular hypotensive activity [5] is given as “the most potent ocular hypotensive agent ever reported” and the “ocular surface side effects” value ([7]; topical ocular use, humans) is given as “ocular surface (conjunctival) hyperemia and foreign-body sensation”.
